In patent publication US20100035756A1, “TRIAZOLOPHYRIDINE DERIVATIVES AS HERBICIDES” (SYNGENTA LIMITED, priority 2006, published 2010):

Key:
Type in all cases: in vivo
Solanum nigrum = experiment: Microscreen (pre-emergence), Example B3; details: preemergent application, 250 g/ha, evaluated 8 days later, 100%=total damage
Setaria italica = experiment: Microscreen (pre-emergence), Example B3; details: preemergent application, 250 g/ha, evaluated 8 days later, 100%=total damage
Stellaria media = experiment: Microscreen (pre-emergence), Example B3; details: preemergent application, 250 g/ha, evaluated 8 days later, 100%=total damage
Nasturtium officinale = experiment: Microscreen (pre-emergence), Example B3; details: preemergent application, 250 g/ha, evaluated 8 days later, 100%=total damage
Amaranthus retroflexus = experiment: Microscreen (pre-emergence), Example B3; details: preemergent application, 250 g/ha, evaluated 8 days later, 100%=total damage
[1] = tested on: Monocotyledonous and dicotyledonous test plants; experiment: Herbicidal action after emergence of the plants (post-emergence herbicidal action), Example B2; details: postemergent application, 125 g/ha, 2- to 3-leaf stage, evaluated after 2-3 weeks, 100%=total damage
Method in brief: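 Sprayed at 2- to 3-leaf stage as aqueous suspension (wettable powder) or emulsion (emulsifiable concentrate) at 125 g/ha; plants grown on in greenhouse. Damage scored after 2–3 weeks (100% = total damage, 0% = none).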

Agrostis tenuis = experiment: Microscreen (pre-emergence), Example B3; details: preemergent application, 250 g/ha, evaluated 8 days later, 100%=total damage
Digitaria sanguinalis = experiment: Microscreen (pre-emergence), Example B3; details: preemergent application, 250 g/ha, evaluated 8 days later, 100%=total damage
[2] = tested on: Monocotyledonous and dicotyledonous test plants; experiment: Herbicidal action prior to emergence of the plants (pre-emergence action), Example B1; details: preemergence application, 250 g/ha, evaluated after 4 weeks, 100%=total damage, 0%=no damage
Method in brief: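 Monocot and dicot species were sown in standard soil and sprayed pre-emergence, right after sowing, at 250 g/ha as an aqueous suspension or emulsion. Plants were grown in a greenhouse for 4 weeks. Damage was scored from 0% (none) to 100% (total).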

SMILES | herbicidal damage, Solanum (Solanum nigrum) | herbicidal damage, Setaria (Setaria italica) | herbicidal damage, Stellaria (Stellaria media) | herbicidal damage, Nasturtium (Nasturtium officinale) | herbicidal damage, Amaranthus (Amaranthus retroflexus) | herbicidal damage, ABUTH [1] | herbicidal damage, AMARE [1] | herbicidal damage, CHEAL [1] | herbicidal damage, DIGSA [1] | herbicidal damage, SETFA [1] | herbicidal damage, SINAR [1] | herbicidal damage, VERPE [1] | herbicidal damage, XANST [1] | herbicidal damage, Agrostis (Agrostis tenuis) | herbicidal damage, Digitaria (Digitaria sanguinalis) | herbicidal damage, ABUTH [2] | herbicidal damage, AMARE [2] | herbicidal damage, BRAPL [2] | herbicidal damage, DIGSA [2] | herbicidal damage, ECHCG [2] | also measured
CCc1nnc2c(C(=O)C3=C(O)C4CCC(C4)C3=O)ccc(C(F)(F)F)n12 (stereo not shown) [Compound 1.5] | 100% | 50% | 60% | 80% | 30% | 90% | 70% | 80% | 70% | 60% | 80% | 70% | 80% | 100% | 80% | 100% | 100% | 60% | 100% | 60% | herbicidal damage, SETFA [2]: 80%; herbicidal damage, STEME [2]: 100%; herbicidal damage, VERPE [2]: 70%
O=C(C1=C(O)C2CCC(C2)C1=O)c1ccc(C(F)(F)F)n2c(C3CC3)nnc12 (stereo not shown) [Compound 1.8] | 90% | 100% | 80% | 100% | 0% | 90% | 90% | 90% | 80% | 80% | 90% | 100% | 90% | 100% | 100% | 100% | 100% | 100% | 100% | 40% | herbicidal damage, SETFA [2]: 60%; herbicidal damage, VERPE [2]: 70%
Cc1nnc2c(C(=O)C3=C(O)CCCC3=O)ccc(C(F)(F)F)n12 [Compound 3.4] | 0% | 60% | 70% | 80% | 80% | 90% | 80% | 60% | 80% | 80% | 90% | 100% | 80% | 100% | 100% | 80% | 60% | 80% | 70% | 70% | herbicidal damage, SETFA [2]: 30%; herbicidal damage, STEME [2]: 30%; herbicidal damage, VERPE [2]: 50%
Cc1nnc2c(C(=O)C3=C(O)C(C)(C)C(=O)C(C)(C)C3=O)ccc(C(F)(F)F)n12 [Compound 5.3] | 100% | 50% | 90% | 100% | 100% | 80% | 70% | 80% | 50% | 50% | 80% | 90% | 90% | 50% | 100% | 100% | 100% | 70% | 100% | 100% | herbicidal damage, SETFA [2]: 60%; herbicidal damage, STEME [2]: 100%; herbicidal damage, VERPE [2]: 100%
